Test results from patent US5972923A, “Methods and compositions to enhance the cytoprotective effects of polycyclic phenolic compounds through the synergistic interaction with anti-oxidants” (priority 1998, dated 1999).
Where two headings read alike, the source gives them in different places.

Experiments:
[1] = system: HT-22 cells; test: Effects of estratrienes with and without glutathione on neurotoxicity of βAP 25-35 in HT-22 cells; settings: for neuroprotection: concurrent treatment with βAP 25-35; for decrease in cell viability: β-AP (25-35); for EC50: Mus musculus
Method: Experiments were initiated by plating cells in Nunc^X 24 well plate cells were allowed to attach for 4 h before treatment. […] After 48 h cells were suspended and viability determined using the trypan blue dye exclusion method (Tennant 1964). Steroids and βAP were prepared as previously described (Green et al. 1996). ED50 values were analyzed by a two way Analysis of Variance. Differences among effects were determined by a Scheffe's post hoc analysis with a p<0.05 considered significant. […] Data are normalized to the βAP free control group as 100% protection and the βAP alone group as 0% protection.

[2] = system: rat primary cortical neurons; test: Neuroprotection against βAP 25-35 in rat primary cortical neurons (LIVE/DEAD kit); settings: for EC50: Rattus norvegicus, Primary cortical neuron
Method: Primary Rat Cortical Culture: Primary neuronal cultures were prepared according to the method used by Chandler et al. Alcoholism: Clinical and Experimental Research, 17 (1993) 54-60.
Once treatments were added, primary cultures were incubated for an additional 24 h and viability determined using the LIVE/DEAD® viability/cytotoxicity kit (Molecular Probes, Eugene, Oreg.) according to manufacturer's instructions. Live cells are distinguished by the presence of intracellular esterase activity which cleaves the calcein AM dye, producing a bright green fluorescence when excited. Ethidium homodimer enters cells with damaged membranes, and upon binding to nucleic acids, produces a red fluorescence. Both dyes are excited at 485 nm, and cultures plates were viewed with a fluorescent microscope (Nikon Diaphot-300). Three random fields were photographed, and the average number of live cells per field was determined by counting the number of bright green cells.

[3] = system: SK-N-SH cells; test: Live cell number of SK-N-SH cells with βAP 25-35 induced toxicity (trypan blue exclusion), 17β-estradiol and anti-oxidants; settings: for interaction with estrogen: combination with estrogen
Method: The assay utilized the human neuroblastoma cells SK-N-SH.
Materials: Lyophilized βAP 25-35 (1 mg) (Bachem, Torrance, Calif.) was initially dissolved in 200 μl ddH20 and with the addition of 800 μl of PBS, rapid aggregation was observed. […] Lipoic acid (thiotic acid), taurine (2-aminoethanoic acid), and ascorbic acid were initially dissolved in cell culture media and used at the concentrations indicated. Unless otherwise noted, materials were obtained from Sigma Chemical Corp SK-N-SH Neuroblastoma Cell Culture: SK-N-SH neuroblastoma cells were obtained from American Type Tissue Collection (Rockville, Md.). Cell cultures were grown to confluency in RPMI-1640 media (Fisher Scientific, Inc.) supplemented with 10% charcoal/dextran-treated fetal bovine serum (FBS), (Hyclone®), Logan, Utah), 100 U/ml penicillin G and 100 mg/ml streptomycin (Sigma Chemical Corp.) in monolayers in Corning 150 cm^2 flasks (Fisher Scientific, Inc.) at 37° C. under 5% CO2, 95% air. Media was changed three times weekly.
(a) SK-N-SH cells used in the following experiments were in passes 4 to 12. The growth media was initially decanted and the cells were rinsed with 0.02% EDTA for 30 min at 37° C. Cells were then counted on a Neubauer hemacytometer (Fisher Scientific) and resuspended in appropriate media. Studies were initiated by plating 1×10^6 cells per well in 24 well plates, allowing attachment in regular media and then decanting that media and replacing with the appropriate treatment after 4 h.
SK-N-SH cell viability was determined utilizing the trypan blue exclusion method (Black and Berenbaum, 1964; Tennant, 1964). After 72 h of incubation, treatment media was decanted and cells were lifted by incubating with 0.2 ml 0.02% EDTA for 30 min at 37° C. Cells were suspended by repeated pipetting. One-hundred μl aliquots from each cell suspension were incubated with 100 μl aliquots of 0.4 % trypan blue stain for 5 min at room temperature. All suspensions were counted on a Neubauer hemacytometer within 10 min of addition of trypan blue stain. Two independent counts of live and dead cells were made for each aliquot.
Statistics: The significant treatment effects on cell viability were determined using ANOVA followed by Scheffe's post hoc test, with significance determined at p<0.05. For dose-response evaluations, EC50 values were calculated by randomly assigning cell counts at the indicated doses to generate 3-5 lines per treatment and determining the average value for those lines. Mann-Whitney Rank Sum non-parametric analysis were used on EC50 values because the variances for the standard deviation were not equivalent.

[4] = system: SK-N-SH cells; test: Dose response of neuroprotection by GSH or 17β-estradiol against βAP 25-35 in SK-N-SH cells (trypan blue); type: cell-based, human; settings: for EC50: Homo sapiens, SK-N-SH
Method: Media was changed three times weekly.
Cells were suspended by repeated pipetting.
After 72 hours incubation, live cells were determined with Trypan Blue exclusion.
After 72 hours incubation, the cells were stained with Trypan Blue. […] (FIG. 3).

[5] = system: HT-22 cells; test: Effects of 17β-estradiol and its BSA conjugate on βAP 25-35 induced toxicity on HT-22 cells (trypan blue); settings: for Live Cell Number ± SEM: 3.25 μM GSH, 48 h
Method: Experiments were initiated by plating cells in Nunc^X 24 well plate and cells were allowed to attach for 4 h before treatment.

[6] = βAP 25-35 (20 μM) + TRT (anti-oxidant), 72 h
[7] = βAP 25-35 (20 μM) + βE2 + TRT (anti-oxidant), 72 h
[8] = HT-22, read-out: ED50, absence of GSH
[9] = HT-22, read-out: ED50, presence of GSH

C[C@]12CC[C@@H]3c4ccc(O)cc4CC[C@H]3[C@@H]1CC[C@@H]2O [17β-estradiol]
neuroprotection [1]: dose-dependent neuroprotection
EC50 ([2]; absence of GSH): 68.1 ± 79 nM
EC50 ([2]; presence of GSH): 4.3 ± 5.9 nM
live cell number ([3]; βAP + βE2, Ascorbic Acid column): 144 ± 9
live cell number ([3]; βAP + βE2, GSH column): 357 ± 19
live cell number ([3]; βAP + βE2, GSSG column): 357 ± 19
neuroprotection ([4]; 200 nM 17β-estradiol, absence of glutathione): Neuroprotection was observed
EC50 ([4]; 72 h, read-out: ED50 of 17β-estradiol, Aβ 25-35 (20 μM), absence of glutathione, 72 h): 100 nM
EC50 ([4]; 72 h, read-out: ED50 of 17β-estradiol, Aβ 25-35 (20 μM), presence of glutathione (3.25 μM), 72 h): 0.02 nM
EC50 ([4]; read-out: EC50 (17β-estradiol dose response, FIG. 3), βAP 25-35 (20 μM), without GSH): 126 ± 87.8 nM

NCCS(=O)(=O)O [Taurine, 2-aminoethanoic acid]
interaction with estrogen [3]: no apparent interactions
live cell number [3, 6]: 402 ± 9
live cell number [3, 7]: 439 ± 11

N[C@@H](CCC(=O)N[C@@H](CS)C(=O)NCC(=O)O)C(=O)O [GSH, glutathione]
effect on β-AP (25-35) induced toxicity ([1]; dose of GSH used in these studies, by itself): no effect
decrease in cell viability ([1]; presence of 3.25 pM GSH (so in the source)): 55±3%
live cell number [3, 6]: 369 ± 7
live cell number [3, 7]: 534 ± 16
protection from β-AP toxicity ([4]; GSH 325 μM): significant protection
EC50 ([4]; 72 h, read-out: ED50 of glutathione, βAP 25-35 (20 μM), absence of 17β-estradiol, 72 h): 32500 nM
EC50 ([4]; 72 h, read-out: ED50 of glutathione, βAP 25-35 (20 μM), presence of 17β-estradiol (2 nM), 72 h): 325 nM
EC50 ([4]; read-out: EC50 (GSH dose response, FIG. 2), βAP 25-35 (20 μM), without 17β-estradiol): 82500 ± 60400 nM
EC50 ([4]; read-out: EC50 (GSH dose response, FIG. 2), βAP 25-35 + 17β-estradiol (2 nM)): 41 ± 25 nM
neuroprotective effect ([4]; glutathione 3.25 μM, absence of 17β-estradiol): little neuroprotective effect
fold greater neuroprotectivity than with glutathione alone ([4]; with 17β-estradiol (2 nM)): 1000 fold

C[C@]12CC[C@@H]3c4ccc(O)cc4CC[C@H]3[C@@H]1CC[C@H]2O [α-estradiol, 17 α-estradiol]
EC50 [1, 8]: 1010 nM
EC50 [1, 9]: 6 nM
neuroprotection [1]: dose-dependent neuroprotection
synergistic effect ([1]; with GSH, FIG. 5): marked synergistic effect

C[C@@]12CCC[C@H]1[C@@H]1CCc3cc(O)ccc3[C@H]1CC2 [E-3-ol, estratriene-3-ol]
EC50 [1, 8]: 3680 nM
EC50 [1, 9]: 14 nM

17β-estradiol-6-(carboxymethyl) oxime: BSA [β17-E2:BSA]
ability to protect HT22 cells from βAP (25-35) toxicity ([5]; BSA conjugate containing 20 μM 17β-estradiol, presence of GSH): abolished the ability of the steroid to protect HT22 cells
Live Cell Number ± SEM ([5]; βAP (20 μM) + 20 μM β17-E2:BSA): 216 ± 17 ×10^3 cells

O=C(O)CCCCC1CCSS1 (stereo not drawn) [Lipoic Acid, Lipoic acid]
interaction with estrogen [3]: no apparent interactions
live cell number [3, 6]: 406 ± 7
live cell number [3, 7]: 416 ± 10

O=C1O[C@H]([C@@H](O)CO)C(O)=C1O [Ascorbic Acid, ascorbic acid]
interaction with estrogen [3]: no apparent interactions
live cell number [3, 6]: 124 ± 6
live cell number [3, 7]: 188 ± 11

CC(=O)Oc1c(C)c(C)c2c(c1C)CCC(C)(CCCC(C)CCCC(C)CCCC(C)C)O2 (stereo not drawn) [Tocopherol, α-tocopherol acetate]
interaction with estrogen [3]: no apparent interactions
live cell number [3, 6]: 448 ± 12
live cell number [3, 7]: 456 ± 14

βAP 25-35: neurotoxic β-amyloid protein, a peptide of 10 amino acids (amino acids 25-35) (GSNKGAIIGLM; Amyloid-beta protein 42; UniProt P05067 696-706, looked up, fragment)
cells killed ([1]; exposure to βAP 25-35): 50-60%
decrease in cell viability ([1]; absence of GSH): 54±4%
Live Cell Number ± SEM ([5]; βAP (20 μM) alone): 189 ± 11 ×10^3 cells
reduction in the average number of viable cells per field ([2]; βAP 25-35 (10 μM), absence of GSH, 24 h): 39%
live cell number ([3]; βAP alone, Ascorbic Acid column): 118 ± 9
live cell number ([3]; βAP alone, GSH): 331 ± 17
live cell number ([3]; βAP alone, GSSG column): 331 ± 17
live cell number ([3]; βAP alone, Lipoic Acid column): 408 ± 10
live cell number ([3]; βAP alone, Taurine column): 408 ± 10
live cell number ([3]; βAP alone, Tocopherol column): 366 ± 24
